Measured values from patent US20140155376A1, “PYRROLOPYRAZINE KINASE INHIBITORS” (Hoffmann-La Roche Inc., priority 2010, published 2014).

Target: T1, JAK3 (recombinant human kinase domain; h-jak3(810-1124)) (Homo sapiens, UniProt P52333)
T1 construct: h-jak3(810- 1124)-sf9-c; made in house; host or cells: Sf9 insect cells
Test: Determination of IC50 of Janus Kinase (JAK) inhibition: JAK3, radioactive end-point assay with 33P-ATP
Type: biochemical
Conditions: JAK3 kinase domain; ATP 1.5 uM, peptide 50 uM, 20 minutes, room temperature, 10% DMSO; read-out: Ic50 h-jak3(810-1124)-sf9-c:no additive
Excerpt: Determination of IC50 of Janus Kinase (JAK) Inhibition:
Enzymes and peptide substrate used are described below: • JAK1: Recombinant human kinase domain from Invitrogen (Cat # PV4774) • JAK3: Recombinant human kinase domain from Millipore (Cat #14-629) or prepared. • JAK2: Recombinant human kinase domain from Millipore (Cat #14-640) • Substrate: N-terminally biotinylated 14-mer peptide derived from activation loop of JAK1 with sequence of the peptide substrate: Biotin-[sequence]
Assay Conditions Used are Described Below: • Assay Buffer: JAK Kinase Buffer: 50 mM Hepes [pH 7.2], 10 mM MgCl2, 1 mM DTT, • 1 mg/ml BSA. The assay is carried out in this buffer. • Assay Format The kinase activity of all three JAK kinases is measured using a radioactive, end-point assay and with trace amounts of ^33P-ATP. The assays are carried out in 96-well polypropylene plates.
All concentrations are final in the reaction mixture and all incubations are carried at room temperature. […] Final concentration of DMSO in the reaction is 10%. • 2) Compounds are preincubated with enzyme (0.5 nM JAK3 (commercially available), 0.2 nM JAK3 (prepared), 1 nM JAK2, 5 nM JAK1) for 10 minutes. • 3) Reactions are initiated by the addition of a cocktail of the two substrates (ATP and peptide premixed in the JAK Kinase Buffer). In the JAK2/JAK3 assays, ATP and the peptide are used at concentrations of 1.5 uM and 50 uM, respectively. JAK1 assay is carried out at an ATP concentration of 10 uM and a peptide concentration of 50 uM. • 4) The duration of the assay for JAK2 and JAK3 is 20 minutes. JAK1 assay is carried out for 40 minutes. With all three enzymes, reactions are terminated by the addition of 0.5M EDTA to a final concentration of 100 mM. • 5) 25 ul of terminated reactions are transferred to 150 ul of a 7.5% (v/v) slurry of streptavidin-coated sepharose beads in MgCl2- and CaCl2-free 1× Phosphate Buffered Saline containing 50 mM of EDTA in 96-well, 1.2 um MultiScreen-BV filter plates. • 6) After a 30-minute incubation, the beads are washed under vacuum with the following buffers: • a. 3 to 4 washes with 200 ul of 2M NaCl. • b. 3 to 4 washes with 200 ul of 2M NaCl plus 1% (v/v) phosphoric acid. • c. 1 wash with water. • 7) Washed plates are dried in a 60° C. oven for between 1 to 2 hours. • 8) 70 ul of Microscint 20 scintillation fluid is added to each well of filter plates and after at least 30 minutes of incubation, radioactive counts are measured in a Perkin-Elmer microplate scintillation counter.

T1 sequence (P52333 810-1124): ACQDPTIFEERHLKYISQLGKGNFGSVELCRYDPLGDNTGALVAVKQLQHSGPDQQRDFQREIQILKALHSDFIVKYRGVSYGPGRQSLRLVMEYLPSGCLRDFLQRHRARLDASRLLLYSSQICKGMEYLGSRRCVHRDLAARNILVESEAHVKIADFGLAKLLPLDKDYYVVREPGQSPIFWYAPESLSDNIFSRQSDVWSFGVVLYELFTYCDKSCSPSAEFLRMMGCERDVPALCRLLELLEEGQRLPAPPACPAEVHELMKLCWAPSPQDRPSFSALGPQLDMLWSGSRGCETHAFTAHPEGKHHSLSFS

Compound	IC50
CC(C)NC(=O)c1c[nH]c2ncc(Oc3cccc(OC(F)(F)F)c3)nc12 [Example I-230, 2-(3-Trifluoromethoxy-phenoxy)-5H-pyrrolo[2,3-b]pyrazine-7-carboxylic acid isopropylamide]	2610 nM
CC(NC(=O)c1c[nH]c2ncc(C3CC3)nc12)C(C)(C)CO (stereo not shown) [Example I-71, 2-Cyclopropyl-5H-pyrrolo[2,3-b]pyrazine-7-carboxylic acid (3-hydroxy-1,2,2-trimethyl-propyl)-amide]	3.8 nM
C[C@H](NC(=O)c1c[nH]c2ncc(-c3cccs3)nc12)C(C)(C)C [Example I-142, 2-Thiophen-2-yl-5H-pyrrolo[2,3-b]pyrazine-7-carboxylic acid ((S)-1,2,2-trimethyl-propyl)-amide]	0.18 nM
C[C@H](NC(=O)c1c[nH]c2ncc(-c3ccc(C(=O)NCC(C)(C)C)s3)nc12)C(C)(C)C [Example I-210, 2-[5-(2,2-Dimethyl-propylcarbamoyl)-thiophen-2-yl]-5H-pyrrolo[2,3-b]pyrazine-7-carboxylic acid ((S)-1,2,2-trimethyl-propyl)-amide]	0.71 nM
C[C@H](NC(=O)c1c[nH]c2ncc(-c3ccc(C(=O)N[C@H](C)C(C)(C)C)s3)nc12)C(C)(C)C [Example I-209, 2-[5-((R)-1,2,2-Trimethyl-propylcarbamoyl)-thiophen-2-yl]-5H-pyrrolo[2,3-b]pyrazine-7-carboxylic acid ((S)-1,2,2-trimethyl-propyl)-amide]	0.47 nM
CC(C)(C)[C@@H](CO)NC(=O)c1c[nH]c2ncc(C3CC3)nc12 [Example I-47, 2-Cyclopropyl-5H-pyrrolo[2,3-b]pyrazine-7-carboxylic acid ((S)-1-hydroxymethyl-2,2-dimethyl-propyl)-amide]	343 nM
C[C@@H](NC(=O)c1c[nH]c2ncc(Oc3ccc(F)cc3F)nc12)C1CCCCC1 [Example I-124, 2-(2,4-Difluoro-phenoxy)-5H-pyrrolo[2,3-b]pyrazine-7-carboxylic acid ((R)-1-cyclohexyl-ethyl)-amide]	442 nM
CC(C)(O)C(NC(=O)c1c[nH]c2ncc(C3CC3)nc12)C(F)(F)F (stereo not shown) [Example I-93, 2-Cyclopropyl-5H-pyrrolo[2,3-b]pyrazine-7-carboxylic acid (2-hydroxy-2-methyl-1-trifluoromethyl-propyl)-amide]	57.8 nM
C[C@H](NC(=O)c1c[nH]c2ncc(C3CC3)nc12)C(C)(C)CS(C)(=O)=O [Example I-144, 2-Cyclopropyl-5H-pyrrolo[2,3-b]pyrazine-7-carboxylic acid ((S)-3-methanesulfonyl-1,2,2-trimethyl-propyl)-amide]	3.4 nM
CCNC(=O)c1c[nH]c2ncc(Oc3ccc4c(c3)[C@H](NC(C)=O)CC4)nc12 [Example I-271, 2-((R)-3-Acetylamino-indan-5-yloxy)-5H-pyrrolo[2,3-b]pyrazine-7-carboxylic acid ethylamide]	1270 nM
CONC(=O)c1ccc(-c2cnc3[nH]cc(C(=O)N[C@@H](C)C(C)(C)C)c3n2)s1 [Example I-197, 2-(5-Methoxy-carbamoyl-thiophen-2-yl)-5H-pyrrolo[2,3-b]pyrazine-7-carboxylic acid ((S)-1,2,2-trimethyl-propyl)-amide]	0.32 nM
CC[C@H](CO)NC(=O)c1c[nH]c2ncc(C3CC3)nc12 [Example I-58, 2-Cyclopropyl-5H-pyrrolo[2,3-b]pyrazine-7-carboxylic acid ((R)-1-hydroxymethyl-propyl)-amide]	37.7 nM
C[C@H](NC(=O)c1c[nH]c2ncc(C3CC3)nc12)C1(O)CCCC1 [Example I-97, 2-Cyclopropyl-5H-pyrrolo[2,3-b]pyrazine-7-carboxylic acid [(S)-1-(1-hydroxy-cyclopentyl)-ethyl]-amide]	18 nM
CC(C)NC(=O)c1c[nH]c2ncc(Oc3ccc4c(c3)[C@@H](O)CC4)nc12 [Example I-304, 2-((S)-3-Hydroxy-indan-5-yloxy)-5H-pyrrolo[2,3-b]pyrazine-7-carboxylic acid isopropylamide]	155 nM
C[C@H](NC(=O)c1c[nH]c2ncc(-c3ccc(C(=O)N4CCN(C)CC4)s3)nc12)C(C)(C)C [Example I-161, 2-[5-(4-Methyl-piperazine-1-carbonyl)-thiophen-2-yl]-5H-pyrrolo[2,3-b]pyrazine-7-carboxylic acid ((S)-1,2,2-trimethyl-propyl)-amide]	0.32 nM
CON(C)C(=O)c1ccc(-c2cnc3[nH]cc(C(=O)N[C@@H](C)C(C)(C)C)c3n2)s1 [Example I-196, 2-[5-(Methoxy-methyl-carbamoyl)-thiophen-2-yl]-5H-pyrrolo[2,3-b]pyrazine-7-carboxylic acid ((S)-1,2,2-trimethyl-propyl)-amide]	0.47 nM
CC(=O)N1CCCC(CNC(=O)c2c[nH]c3ncc(C4CC4)nc23)C1 (stereo not shown) [Example I-136, 2-Cyclopropyl-5H-pyrrolo[2,3-b]pyrazine-7-carboxylic acid (1-acetyl-piperidin-3-ylmethyl)-amide]	283 nM

Compound	IC50
C[C@H](NC(=O)c1c[nH]c2ncc(-c3ccc(C(=O)NCC4CCCC4)s3)nc12)C(C)(C)C [Example I-168, 2-[5-(Cyclo-pentylmethyl-carbamoyl)-thiophen-2-yl]-5H-pyrrolo[2,3-b]pyrazine-7-carboxylic acid ((S)-1,2,2-trimethyl-propyl)-amide]	0.22 nM
CC(C)(CO)NC(=O)c1c[nH]c2ncc(C3CC3)nc12 [Example I-45, 2-Cyclopropyl-5H-pyrrolo[2,3-b]pyrazine-7-carboxylic acid (2-hydroxy-1,1-dimethyl-ethyl)-amide]	208 nM
C[C@H](NC(=O)c1c[nH]c2ncc(-c3ccc(C(=O)N4CCC(C)(O)CC4)s3)nc12)C(C)(C)C [Example I-175, 2-[5-(4-Hydroxy-4-methyl-piperidine-1-carbonyl)-thiophen-2-yl]-5H-pyrrolo[2,3-b]pyrazine-7-carboxylic acid ((S)-1,2,2-trimethyl-propyl)-amide]	0.1 nM
C[C@H](NC(=O)c1c[nH]c2ncc(-c3ccc(C(=O)NCc4cccnc4)s3)nc12)C(C)(C)C [Example I-164, 2-{5-[(Pyridin-3-ylmethyl)-carbamoyl]-thiophen-2-yl}-5H-pyrrolo[2,3-b]pyrazine-7-carboxylic acid ((S)-1,2,2-trimethyl-propyl)-amide]	0.32 nM
CCNC(=O)c1c[nH]c2ncc(Oc3ccc4cc[nH]c4c3)nc12 [Example I-273, 2-(1H-Indol-6-yloxy)-5H-pyrrolo[2,3-b]pyrazine-7-carboxylic acid ethylamide]	470 nM
CC(C)(CO)CNC(=O)c1c[nH]c2ncc(N3CCC(C)(C)C3)nc12 [Example I-14, 2-(3,3-Dimethyl-pyrrolidin-1-yl)-5H-pyrrolo[2,3-b]pyrazine-7-carboxylic acid (3-hydroxy-2,2-dimethyl-propyl)-amide]	409 nM
CC(O)CC(C)(C)NC(=O)c1c[nH]c2ncc(C3CC3)nc12 (stereo not shown) [Example I-12, 2-Cyclopropyl-5H-pyrrolo[2,3-b]pyrazine-7-carboxylic acid (3-hydroxy-1,1-dimethyl-butyl)-amide]	192 nM
C[C@@H]1C[C@H]1c1cnc2[nH]cc(C(=O)NCC(C)(C)CO)c2n1 [Example I-43, 2-((1R,2R)-2-Methyl-cyclopropyl)-5H-pyrrolo[2,3-b]pyrazine-7-carboxylic acid (3-hydroxy-2,2-dimethyl-propyl)-amide]	121 nM
C[C@H](NC(=O)c1c[nH]c2ncc(-c3cn(-c4cccc(Cl)c4)cn3)nc12)C(C)(C)C [Example I-145, 2-[1-(3-Chloro-phenyl)-1H-imidazol-4-yl]-5H-pyrrolo[2,3-b]pyrazine-7-carboxylic acid ((S)-1,2,2-trimethyl-propyl)-amide]	4.61 nM
Cc1cc(-c2cnc3[nH]cc(C(=O)N[C@@H](C)C(C)(C)C)c3n2)sc1C(=O)NC1CCOCC1 [Example I-219, 2-[4-Methyl-5-(tetrahydro-pyran-4-ylcarbamoyl)-thiophen-2-yl]-5H-pyrrolo[2,3-b]pyrazine-7-carboxylic acid ((S)-1,2,2-trimethyl-propyl)-amide]	0.24 nM
CC(C)[C@@H](C)NC(=O)c1c[nH]c2ncc(Oc3ccc(F)cc3F)nc12 [Example I-127, 2-(2,4-Difluoro-phenoxy)-5H-pyrrolo[2,3-b]pyrazine-7-carboxylic acid ((R)-1,2-dimethyl-propyl)-amide]	143 nM
CC(C)(CO)CNC(=O)c1c[nH]c2ncc(Br)nc12 [Example I-1, 2-Bromo-5H-pyrrolo[2,3-b]pyrazine-7-carboxylic acid (3-hydroxy-2,2-dimethyl-propyl)-amide]	225 nM
COCC(C)(C)CNC(=O)c1c[nH]c2ncc(C3CC3)nc12 [Example I-59, 2-Cyclopropyl-5H-pyrrolo[2,3-b]pyrazine-7-carboxylic acid (3-methoxy-2,2-dimethyl-propyl)-amide]	58.9 nM
C[C@@H](NC(=O)c1c[nH]c2ncc(Oc3ccccc3)nc12)C(C)(C)O [Example I-116, 2-Phenoxy-5H-pyrrolo[2,3-b]pyrazine-7-carboxylic acid ((R)-2-hydroxy-1,2-dimethyl-propyl)-amide]	682 nM
O=C(N[C@@H](CC1CCCCC1)[C@@H](O)[C@@H](O)C1CC1)c1c[nH]c2ncc(C3CC3)nc12 [Example I-88, 2-Cyclopropyl-5H-pyrrolo[2,3-b]pyrazine-7-carboxylic acid ((1S,2R,3S)-1-cyclohexylmethyl-3-cyclopropyl-2,3-dihydroxy-propyl)-amide]	1410 nM
CC(C)[C@H](C)NC(=O)c1c[nH]c2ncc(C3CC3)nc12 [Example I-25, 2-Cyclopropyl-5H-pyrrolo[2,3-b]pyrazine-7-carboxylic acid ((S)-1,2-dimethyl-propyl)-amide]	6.73 nM
C[C@H](CS(C)(=O)=O)NC(=O)c1ccc(-c2cnc3[nH]cc(C(=O)N[C@@H](C)C(C)(C)C)c3n2)s1 [Example I-211, 2-[5-((R)-2-Methanesulfonyl-1-methyl-ethylcarbamoyl)-thiophen-2-yl]-5H-pyrrolo[2,3-b]pyrazine-7-carboxylic acid ((S)-1,2,2-trimethyl-propyl)-amide]	0.22 nM
